Test results as given in US6489341B1 (Sepracor Inc., priority 1999, dated 2002).
pIC50, pKi: −log10 of the molar value. Read-outs that look alike come from different tables or passages of the source.

What was measured:
[1] = target: non-selective α1 receptor from rat cerebral cortex; assay: Binding affinity at non-selective α1 receptor; conditions: for pKi: calculated inhibition constant, in parentheses; for pIC50: concentration required to inhibit 50% specific binding
[2] = target: T1, human recombinant dopamine D2 receptor (Homo sapiens, UniProt P14416); assay: Binding affinity at dopamine D2 receptor; conditions: for pKi: calculated inhibition constant, in parentheses; for pIC50: concentration required to inhibit 50% specific binding
T1 construct: expressed in transfected cells
T1 sequence (P14416 whole entry): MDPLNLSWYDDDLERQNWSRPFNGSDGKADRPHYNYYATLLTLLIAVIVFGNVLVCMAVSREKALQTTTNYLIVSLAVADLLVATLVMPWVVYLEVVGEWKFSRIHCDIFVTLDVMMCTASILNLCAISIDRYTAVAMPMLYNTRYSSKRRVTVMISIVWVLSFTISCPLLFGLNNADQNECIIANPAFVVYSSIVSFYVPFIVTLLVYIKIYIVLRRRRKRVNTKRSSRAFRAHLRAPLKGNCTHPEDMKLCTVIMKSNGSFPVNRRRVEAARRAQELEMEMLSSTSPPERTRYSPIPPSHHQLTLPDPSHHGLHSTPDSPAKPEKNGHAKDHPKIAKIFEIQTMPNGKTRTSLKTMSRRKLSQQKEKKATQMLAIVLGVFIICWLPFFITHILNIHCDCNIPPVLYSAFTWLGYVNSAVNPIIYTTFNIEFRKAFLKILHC

[3] = target: T2, human recombinant dopamine D4 receptor (Homo sapiens, UniProt P21917); assay: Binding affinity at dopamine D4 receptor; conditions: for pKi: calculated inhibition constant, in parentheses; for pIC50: concentration required to inhibit 50% specific binding
T2 construct: expressed in transfected cells
T2 sequence (P21917 1-419): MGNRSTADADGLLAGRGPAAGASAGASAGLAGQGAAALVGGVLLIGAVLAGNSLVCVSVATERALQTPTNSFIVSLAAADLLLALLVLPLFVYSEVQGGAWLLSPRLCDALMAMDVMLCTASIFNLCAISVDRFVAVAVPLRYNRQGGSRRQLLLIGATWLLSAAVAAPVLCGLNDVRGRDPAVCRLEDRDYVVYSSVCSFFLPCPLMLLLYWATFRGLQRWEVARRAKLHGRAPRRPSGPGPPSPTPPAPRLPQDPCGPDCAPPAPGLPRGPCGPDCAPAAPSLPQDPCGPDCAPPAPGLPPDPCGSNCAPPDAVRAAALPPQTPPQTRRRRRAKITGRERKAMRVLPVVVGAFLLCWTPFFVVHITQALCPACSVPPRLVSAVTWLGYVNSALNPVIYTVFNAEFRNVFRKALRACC

[4] = target: T3, human recombinant serotonin 5-HT2A receptor (Homo sapiens, UniProt P28223); assay: Binding affinity at serotonin 5-HT2A receptor; conditions: for selectivity for 5-HT2A receptors versus D2 receptors (in words): conclusion from Table 1; for 5-HT2A Selectivity (D2/5-HT2A): ratio of D2 to 5-HT2A IC50
T3 construct: expressed in transfected cells
T3 sequence (P28223 whole entry): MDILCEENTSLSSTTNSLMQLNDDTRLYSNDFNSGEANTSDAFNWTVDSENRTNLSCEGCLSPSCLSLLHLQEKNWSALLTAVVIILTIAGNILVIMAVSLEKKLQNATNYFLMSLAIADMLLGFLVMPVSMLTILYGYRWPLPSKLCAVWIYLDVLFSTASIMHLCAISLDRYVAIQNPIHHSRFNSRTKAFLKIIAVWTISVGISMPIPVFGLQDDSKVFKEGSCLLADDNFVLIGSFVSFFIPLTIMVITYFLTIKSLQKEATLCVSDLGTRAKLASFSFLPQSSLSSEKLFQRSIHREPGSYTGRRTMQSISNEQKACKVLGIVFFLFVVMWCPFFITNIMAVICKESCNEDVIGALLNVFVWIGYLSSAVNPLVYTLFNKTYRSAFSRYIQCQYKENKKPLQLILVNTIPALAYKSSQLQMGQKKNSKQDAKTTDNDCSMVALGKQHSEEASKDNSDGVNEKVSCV

[5] = calculated inhibition constant, in parentheses, human recombinant, read-out: Ki by Receptor 5-HT2A
[6] = concentration required to inhibit 50% specific binding, human recombinant, read-out: IC50 by Receptor 5-HT2A

| SMILES | pKi [1] | pIC50 [1] | pKi [2] | pIC50 [2] | pKi [3] | pIC50 [3] | pKi [4, 5] | pIC50 [4, 6] | selectivity for 5-HT2A receptors versus D2 receptors (in words) [4] | 5-HT2A Selectivity (D2/5-HT2A) [4] | pIC50 [4] | pKi [4] |
| --- | --- | --- | --- | --- | --- | --- | --- | --- | --- | --- | --- | --- |
| O=C1CNC(=O)N1CCN1CCC(c2cn(-c3ccc(F)cc3)c3ccc(Cl)cc23)CC1 [5-Oxo, 1-[2-[4-[5-chloro-1-(4-fluorophenyl)-1H-indol-3-yl]piperidin-1-yl]ethyl]midazolidin-2,5-dione] | 8.48 | 7.92 | 7.96 | 7.36 | 7.02 | 6.50 | 7.96 | 7.74 | greater selectivity for 5-HT2A receptors than for D2 receptors | 2.4 |  |  |
| COc1cc2nc(N3CCN(C(=O)c4ccco4)CC3)nc(N)c2cc1OC [Prazosin, reference compound] | 10.06 | 9.49 |  |  |  |  |  |  |  |  |  |  |
| Fc1ccc(-n2cc(C3=CCNCC3)c3cc(Cl)ccc32)cc1 [Nor, 5-chloro-1-(4-fluorophenyl)-3-(1,2,3 6-tetrahydropvridin-4-yl)indole] | 7.89 | 7.31 | 7.70 | 7.11 | 6.48 | 5.96 | 7.96 | 7.77 | greater selectivity for 5-HT2A receptors than for D2 receptors | 4.6 |  |  |
| O=C1NCCN1CCN1CCC(c2cn(-c3ccc(F)cc3)c3ccc(Cl)cc23)CC1 [Sertindole, 1-[2-[4-[5-chloro-1-(4-fluorophenyl)-1H-indol-3-yl]-1-piperidinyl]ethyl]-2-imidazolidinone, reference compound] | 8.77 | 8.21 |  |  |  |  |  |  |  |  |  |  |
| Fc1ccc(-n2cc(C3=CCNCC3)c3cc(Cl)ccc32)cc1 [Dehydro-Nor] | 7.55 | 6.99 | 8.06 | 7.47 | 6.94 | 6.42 |  |  |  | 1.4 | 7.60 | 7.80 |
